In patent publication US20240174647A1 (NEURON23, INC., priority 2022, published 2024):

Biological target: wt human LRRK2, catalytic site (Homo sapiens (Human), UniProt Q5S007)
Assay: TR-FRET LanthaScreen Tb Kinase Activity Assay (LRRK2 kinase inhibition)
Assay type: biochemical
Conditions: 2 nM wt human LRRK2, 400 nM fluorescein-ERM (LRRKtide) peptide, 38 μM ATP, 120 minutes at room temperature
Method in brief: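 LanthaScreen TR-FRET with 2 nM wt human LRRK2 catalytic site, 400 nM fluorescein-ERM (LRRKtide) peptide and 38 µM ATP in Kinase Buffer A; 120 min at room temperature. Phosphorylation detected with EDTA and Tb-anti-pLRRKtide after 60 min; IC50 from emission ratios.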

Sequence of wt human LRRK2, catalytic site (Q5S007 1879-2138): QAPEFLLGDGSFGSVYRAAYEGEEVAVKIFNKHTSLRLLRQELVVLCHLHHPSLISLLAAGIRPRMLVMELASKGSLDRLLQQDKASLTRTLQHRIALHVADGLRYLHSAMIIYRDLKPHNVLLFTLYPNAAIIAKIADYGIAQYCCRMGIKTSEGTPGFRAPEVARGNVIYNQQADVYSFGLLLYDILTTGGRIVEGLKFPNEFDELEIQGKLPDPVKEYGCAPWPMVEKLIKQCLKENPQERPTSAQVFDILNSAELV

Row | Structure (SMILES) | IC50 [nM]
1 | CC(C)(CS(C)(=O)=O)n1ncc2c(Nc3ncc(C(F)(F)F)c(NC4CC4)n3)cccc21 [Example 195, N^4-cyclopropyl-N^2-(1-(2-methyl-1-(methylsulfonyl)propan-2-yl)-1H-indazol-4-yl)-5-(trifluoromethyl)pyrimidine-2,4-diamine] | < 50
2 | CC(C)(C)n1ncc2c(Nc3ncc(C(F)(F)F)c(NC4CC4)n3)cccc21 [Example 196, N^2-(1-tert-butylindazol-4-yl)-N^4-cyclopropyl-5-(trifluoromethyl)pyrimidine-2,4-diamine] | < 50
3 | FC(F)(F)c1cnc(Nc2cccc3c2cnn3CC2COC2)nc1NC1CC1 [Example 197, N^4-cyclopropyl-N^2-(1-(oxetan-3-ylmethyl)-1H-indazol-4-yl)-5-(trifluoromethyl) pyrimidine-2,4-diamine] | 50 to 200
4 | CS(=O)(=O)CCn1ncc2c(Nc3ncc(C(F)(F)F)c(N[C@H]4C[C@H]4F)n3)cccc21 [Example 198, N^4-((1S,2R)-2-fluorocyclopropyl)-N^2-(1-(2-(methylsulfonyl)ethyl)-1H-indazol-4-yl)-5-(trifluoromethyl)pyrimidine-2,4-diamine] | < 50
5 | CS(=O)(=O)CCn1ncc2c(Nc3ncc(C(F)(F)F)c(N[C@H]4C[C@@H]4F)n3)cccc21 [Example 199, N^4-((1S,2S)-2-fluorocyclopropyl)-N^2-(1-(2-(methylsulfonyl)ethyl)-1H-indazol-4-yl)-5-(trifluoromethyl)pyrimidine-2,4-diamine] | < 50
6 | CC(C)(C#N)Cn1ncc2c(Nc3ncc(C(F)(F)F)c(NC4CC4)n3)cccc21 [Example 200, 3-[4-[[4-(cyclopropylamino)-5-(trifluoromethyl)pyrimidin-2-yl]amino]indazol-1-yl]-2,2-dimethyl-propanenitrile] | < 50
7 | CC(C)(O)Cn1ncc2c(Nc3ncc(C(F)(F)F)c(NC4CC4)n3)ccnc21 [Example 201, 1-(4-((4-(cyclopropylamino)-5-(trifluoromethyl)pyrimidin-2-yl)amino)-1H-pyrazolo[3,4-b]pyridin-1-yl)-2-methylpropan-2-ol] | < 50
8 | CNc1nc(Nc2cccc3c2cnn3C(C)(C)C#N)nc2[nH]cnc12 [Example 202, 2-methyl-2-[4-[[6-(methylamino)-9H-purin-2-yl]amino]indazol-1-yl]propanenitrile] | < 50
9 | CS(=O)(=O)CCn1ncc2c(Nc3nc(NC4CC4)c4c(Cl)c[nH]c4n3)cccc21 [Example 203, 5-chloro-N^4-cyclopropyl-N^2-(1-(2-(methylsulfonyl)ethyl)-1H-indazol-4-yl)-7H-pyrrolo[2,3-d]pyrimidine-2,4-diamine] | < 50
10 | Cc1n[nH]c2nc(Nc3cccc4c3cnn4CC(C)(C)O)nc(NC3CC3)c12 [Example 204, 1-[4-[[4-(cyclopropylamino)-3-methyl-1H-pyrazolo[3,4-d]pyrimidin-6-yl]amino]indazol-1-yl]-2-methyl-propan-2-ol] | < 50
11 | CCNc1nc(Nc2ccc(F)c3c2cnn3CC(C)(C)O)nc2[nH]nc(C)c12 [Example 205, 1-[4-[[4-(ethylamino)-3-methyl-1H-pyrazolo[3,4-d]pyrimidin-6-yl]amino]-7-fluoro-indazol-1-yl]-2-methyl-propan-2-ol] | < 50
